The text below walks through data of patent publication US20060079439A1, “Elastin prevents occlusion of body vessels by vascular smooth muscle cells” (priority 2002, published 2006).

“Also recorded” adds a separate entry of the source. *1 amine or outer side, *2 acyl side, *3 side chain or, on linkers, in order; H or OH if unused. Where a SMILES comes first, the peptide text is derived from it. Bridges are numbered along the chain shown (N, C = ends). Roman numbers before positions name the chains, in order. [ ]: non-standard residue; d: D form. Actinocin(9to1) = Cc1c2oc3c(C)ccc(C(=O)[*:1])c3nc-2c(C(=O)[*:2])c(N)c1=O; NMeV = CN[C@H](C(=O)O)C(C)C; Sar = CNCC(=O)O

Test [1] concerns Eln −/− vascular smooth muscle cells. Particulars: for effect of pretreatment on tropoelastin- or elastin peptide-induced actin stress fiber formation: 100 μM actinomycin D, 10 μg/ml cyclohexamide, 100 ng/ml pertussis toxin or β protomer, 20 μM EDTA, 10 μM genistein; for effect on induction of contractile organization in Eln −/− vsmcs by elastin: pertussis toxin 100 ng/ml, preliminary experiments.

Test [2] concerns vascular smooth muscle cells. It is filed as cell-based, mouse. Particulars: for effect of inhibitor on elastin peptide induced cell migration / effect of inhibitor on migration in response to PDGF: 10 μM genistein, 100 ng/ml pertussis toxin; for effect of inhibitor on elastin peptide induced cell migration: 100 ng/ml β-protomer, 20 μM Y27632; for effect on migration of Eln −/− vsmcs towards elastin: pertussis toxin 100 ng/ml, preliminary experiments; for effect of inhibitor on migration in response to PDGF: 30 ng/ml PDGF. The protocol: Instead, we postulated that elastin signals vsmcs to migrate and adhere to the elastic lamellae. To test this hypothesis we used a modified Boyden chamber assay (Li et al., 1998; Raines et al., 1993). This assay system consists of two adjacent chambers separated by a semipermeable membrane. The amount of cells placed in one chamber (upper) that migrate to the other chamber (lower) is measured by counting the number of cells that have passed through to the undersurface of the filter.
Briefly, chemotaxis was measured using a modified Boyden chamber method. […] Prior to their addition to the upper chamber, vascular smooth muscle cells were incubated with either 20 μM EDTA (inhibitor of integrin receptors), 10 μM genistein (inhibitor of receptor tyrosine kinases), 100 ng/ml pertussis toxin, 100 ng/ml β-protomer, 20 μM Y27632, or the cells were left untreated. […] Cells were added to the upper chamber and incubated for three hours.

Test [3] has as its system cAMP levels in Eln −/− vsmcs. It is filed as cell-based, mouse.
Test [4] has as its system −/− vascular smooth muscle cells. Description: F:G actin ratio, sedimentation assay. It is filed as cell-based, mouse.
For test [5], the system named is RhoA. Nature of the test: RhoA activation, Rhotekin bead pull-down and Western blot. In kind it is cell-based, mouse. Particulars: pretreatment with pertussis toxin. An excerpt: Briefly, cell lysates from treated or untreated −/− cells were immunoprecipitated using Rhotekin-coated beads which recognize GTP-bound RhoA. […] Rho-γGTP served as a positive control and Rho-GDP served as a negative control.
In general terms: In western blotting, separated proteins are transferred to a membrane and probed.

In the case of `O=C(O)CN(CCN(CC(=O)O)CC(=O)O)CC(=O)O` [EDTA, ethylenediamine tetraacetic acid], in test [1], the “effect of pretreatment on tropoelastin- or elastin peptide-induced actin stress fiber formation” value is given as “not altered” and the “effect on induction of contractile organization in Eln −/− vsmcs by elastin” value is listed as “little or no inhibition”. Moreover, the “effect of inhibitor on migration in response to collagen” value in test [2] (10 μg/ml collagen type I, 20 μM EDTA) was “able to block”. The “effect of inhibitor on elastin peptide induced cell migration” value in test [2] (20 μM EDTA) is listed as “insensitive”. Besides, the “effect on migration of Eln −/− vsmcs towards elastin” value in test [2] was “insensitive”.

In the case of `C[C@@H](N)[C@H]1CC[C@H](C(=O)Nc2ccncc2)CC1` [Y-27632], the “effect of pretreatment on tropoelastin- or elastin peptide-induced actin stress fiber formation” value in test [1] was “significantly decreased”. In addition, in test [2] (20 μM EDTA), the “effect of inhibitor on elastin peptide induced cell migration” value is “does not block”.

Consider `Cc1c2oc3c(C)ccc(C(=O)N[C@@H]4C(=O)N[C@H](C(C)C)C(=O)N5CCC[C@H]5C(=O)N(C)CC(=O)N(C)[C@@H](C(C)C)C(=O)O[C@@H]4C)c3nc-2c(C(=O)N[C@@H]2C(=O)N[C@H](C(C)C)C(=O)N3CCC[C@H]3C(=O)N(C)CC(=O)N(C)[C@@H](C(C)C)C(=O)O[C@@H]2C)c(N)c1=O` [actinomycin D] (I: T[dV]P[Sar][NMeV] / II: T[dV]P[Sar][NMeV]; ester I:1-I:C, II:1-II:C; linker I:N-II:N via Actinocin(9to1)), for which the “effect of pretreatment on tropoelastin- or elastin peptide-induced actin stress fiber formation” value in test [1] is recorded as “maintained”.

Turning to `C[C@@H]1C[C@@H]([C@H](O)CC2CC(=O)NC(=O)C2)C(=O)[C@@H](C)C1` [cyclohexamide], in test [1], the “effect of pretreatment on tropoelastin- or elastin peptide-induced actin stress fiber formation” value was “maintained”.

As for `O=c1c(-c2ccc(O)cc2)coc2cc(O)cc(O)c12` [genistein], in test [1], the “effect of pretreatment on tropoelastin- or elastin peptide-induced actin stress fiber formation” value is recorded as “not altered”. Also, the “effect of inhibitor on migration in response to PDGF” value in test [2] is recorded as “able to block”. In addition, the “effect of inhibitor on elastin peptide induced cell migration” value in test [2] (20 μM EDTA) is given as “insensitive”.

As to cholera toxin [reference compound], in test [3], the cAMP levels entry is listed as “increased”.

With “control peptide: control peptide (SEQ ID NO: 4) (VSLSPG; Control random fragment.) [reference compound]”, in test [3] (10 μM forskolin pretreatment, 1 ug/ml tropoelastin, 10 μM elastin peptide or control peptide), the “forskolin induced cAMP levels” value was “not”. Also, in test [4] (versus untreated cells), the “increase in the F:G actin ratio” value is reported as “not”. In test [1] (3 hours, 1 ug/ml tropoelastin, 10 nM elastin peptide or 10 nM control peptide), the “formation of organized actin stress fibers / actin myofilament polymerization” value was “did not produce this effect”.

On to pertussis toxin, for which, in test [3], the “effect on the tropoelastin or elastin peptide effect on forskolin induced cAMP levels” value was “blocked”. For the same compound, the “RhoA activation by tropoelastin or elastin peptide after pretreatment” value in test [5] was “unable to activate RhoA”. In test [4] (100 ng/ml pretreatment), the “effect of pretreatment on the tropoelastin or elastin peptide effect on the F:G actin ratio” value is “significantly decreased”. Moreover, in test [1], the “effect of pretreatment on tropoelastin- or elastin peptide-induced actin stress fiber formation” value was “significantly decreased” and the “effect on induction of contractile organization in Eln −/− vsmcs by elastin” value is “sensitive”. Further, in test [2], the “effect of inhibitor on migration in response to PDGF” value is “no impact; also recorded: insensitive” and the “effect on migration of Eln −/− vsmcs towards elastin” value is on record as “sensitive”. Moreover, the “effect of inhibitor on elastin peptide induced cell migration” value in test [2] (20 μM EDTA) is recorded as “blocked”.
